Measurements as given in ChEMBL document CHEMBL1201862, “PubChem BioAssay data set” (2004).
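All cell lines were grown in 96-well plates and treated with compound for 48 hours. Here, GI50 denotes the concentration required for 50% inhibition of growth.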 Active and inactive are the calls of the source. Rule as the data show it: active = GI50 up to about 1.1 µM and inactive = higher.

Tests used:
Assay in all cases: DTP human tumour cell line panel, 48 h
COLO 205 = test system: COLO 205
PC-3 = test system: PC-3
EKVX = test system: EKVX
K562 = test system: K562
A549 = test system: A549
NCI-H23 = test system: NCI-H23
786-0 = test system: 786-0
HT-29 = test system: HT-29
HCT-15 = test system: HCT-15
CAKI-1 = test system: CAKI-1
SF-268 = test system: SF-268
HOP-62 = test system: HOP-62
NCI-H460 = test system: NCI-H460
SF-539 = test system: SF-539
IGROV-1 = test system: IGROV-1
SR = test system: SR
OVCAR-5 = test system: OVCAR-5
SN12C = test system: SN12C
MDA-N = test system: MDA-N
SNB-19 = test system: SNB-19
ACHN = test system: ACHN
OVCAR-4 = test system: OVCAR-4
SF-295 = test system: SF-295
RPMI-8226 = test system: RPMI-8226
OVCAR-8 = test system: OVCAR-8
SNB-75 = test system: SNB-75
UO-31 = test system: UO-31
Hs-578T = test system: Hs-578T
NCI-H226 = test system: NCI-H226
SW-620 = test system: SW-620
NCI-H522 = test system: NCI-H522
SK-MEL-5 = test system: SK-MEL-5
MCF7 = test system: MCF7
UACC-62 = test system: UACC-62
BT-549 = test system: BT-549
CCRF-CEM = test system: CCRF-CEM
TK-10 = test system: TK-10
HL-60 = test system: HL-60
KM12 = test system: KM12
OVCAR-3 = test system: OVCAR-3
M14 = test system: M14
Malme-3M = test system: Malme-3M
MDA-MB-231 = test system: MDA-MB-231
SK-MEL-28 = test system: SK-MEL-28
MDA-MB-435 = test system: MDA-MB-435
SK-OV-3 = test system: SK-OV-3
U-251 = test system: U-251
HOP-92 = test system: HOP-92
HCC 2998 = test system: HCC 2998
HCT-116 = test system: HCT-116
T47D = test system: T47D
UACC-257 = test system: UACC-257
LOX IMVI = test system: LOX IMVI
DU-145 = test system: DU-145
RXF 393 = test system: RXF 393
MOLT-4 = test system: MOLT-4
NCI/ADR-RES = test system: NCI/ADR-RES
SK-MEL-2 = test system: SK-MEL-2
A498 = test system: A498

CC1=NN(C(=O)CC(=O)Nc2ccccc2Cl)C(=O)C1/N=N\c1ccc(S(=O)(=O)c2ccc(/N=N/C3C(=O)N(C(=O)CC(=O)Nc4ccccc4Cl)N=C3C)cc2)cc1 (centres undefined)
GI50 (COLO 205): > 100 µM (inactive)
GI50 (PC-3): > 100 µM (inactive)
GI50 (EKVX): > 100 µM (inactive)
GI50 (K562): > 100 µM (inactive)
GI50 (A549): > 100 µM (inactive)
GI50 (NCI-H23): > 100 µM (inactive)
GI50 (786-0): > 100 µM (inactive)
GI50 (HT-29): > 100 µM (inactive)
GI50 (HCT-15): > 100 µM
GI50 (CAKI-1): > 100 µM (inactive)
GI50 (SF-268): > 100 µM (inactive)
GI50 (HOP-62): > 100 µM (inactive)
GI50 (NCI-H460): > 100 µM (inactive)
GI50 (SF-539): > 100 µM (inactive)
GI50 (IGROV-1): > 100 µM (inactive)
GI50 (SR): > 100 µM (inactive)
GI50 (OVCAR-5): > 100 µM (inactive)
GI50 (SN12C): > 100 µM (inactive)
GI50 (MDA-N): > 100 µM (inactive)
GI50 (SNB-19): > 100 µM (inactive)
GI50 (ACHN): > 100 µM (inactive)
GI50 (OVCAR-4): > 100 µM (inactive)
GI50 (SF-295): > 100 µM (inactive)
GI50 (RPMI-8226): > 100 µM (inactive)
GI50 (OVCAR-8): > 100 µM (inactive)
GI50 (SNB-75): > 100 µM (inactive)
GI50 (UO-31): > 100 µM (inactive)
GI50 (Hs-578T): > 100 µM (inactive)
GI50 (NCI-H226): > 100 µM (inactive)
GI50 (SW-620): > 100 µM (inactive)
GI50 (NCI-H522): > 100 µM (inactive)
GI50 (SK-MEL-5): > 100 µM (inactive)
GI50 (MCF7): > 100 µM (inactive)
GI50 (UACC-62): > 100 µM (inactive)
GI50 (BT-549): > 100 µM (inactive)
GI50 (CCRF-CEM): > 100 µM (inactive)
GI50 (TK-10): > 100 µM (inactive)
GI50 (HL-60): > 100 µM (inactive)
GI50 (KM12): > 100 µM (inactive)
GI50 (OVCAR-3): > 100 µM (inactive)
GI50 (M14): > 100 µM (inactive)
GI50 (Malme-3M): > 100 µM (inactive)
GI50 (MDA-MB-231): 30.5 µM (inactive)
GI50 (SK-MEL-28): > 100 µM (inactive)
GI50 (MDA-MB-435): > 100 µM (inactive)
GI50 (SK-OV-3): > 100 µM (inactive)
GI50 (U-251): > 100 µM (inactive)
GI50 (HOP-92): > 100 µM (inactive)
GI50 (HCC 2998): > 100 µM (inactive)
GI50 (HCT-116): > 100 µM (inactive)
GI50 (T47D): > 100 µM (inactive)
GI50 (UACC-257): > 100 µM (inactive)
GI50 (LOX IMVI): 54.1 µM (inactive)
GI50 (DU-145): > 100 µM (inactive)
GI50 (RXF 393): > 100 µM (inactive)
GI50 (MOLT-4): > 100 µM (inactive)
GI50 (NCI/ADR-RES): > 100 µM (inactive)
GI50 (SK-MEL-2): > 100 µM (inactive)

CCOC(=O)[C@@]12C[C@](/C=C/OC)(O[Si](C)(C)C)[C@@]13c1cc(OC)c(OC)cc1CCN3C(=O)C2=O
GI50 (COLO 205): > 100 µM (inactive)
GI50 (PC-3): > 100 µM (inactive)
GI50 (EKVX): > 100 µM (inactive)
GI50 (K562): > 100 µM (inactive)
GI50 (A549): > 100 µM (inactive)
GI50 (NCI-H23): > 100 µM (inactive)
GI50 (786-0): > 100 µM (inactive)
GI50 (HT-29): > 100 µM (inactive)
GI50 (HCT-15): > 100 µM
GI50 (A498): > 100 µM (inactive)
GI50 (CAKI-1): > 100 µM (inactive)
GI50 (SF-268): > 100 µM (inactive)
GI50 (HOP-62): > 100 µM (inactive)
GI50 (NCI-H460): > 100 µM (inactive)
GI50 (SF-539): > 100 µM (inactive)
GI50 (IGROV-1): > 100 µM (inactive)
GI50 (SR): > 100 µM (inactive)
GI50 (OVCAR-5): > 100 µM (inactive)
GI50 (SN12C): > 100 µM (inactive)
GI50 (MDA-N): > 100 µM (inactive)
GI50 (SNB-19): > 100 µM (inactive)
GI50 (ACHN): > 100 µM (inactive)
GI50 (OVCAR-4): > 100 µM (inactive)
GI50 (SF-295): > 100 µM (inactive)
GI50 (RPMI-8226): > 100 µM (inactive)
GI50 (OVCAR-8): > 100 µM (inactive)
GI50 (SNB-75): > 100 µM (inactive)
GI50 (UO-31): > 100 µM (inactive)
GI50 (Hs-578T): > 100 µM (inactive)
GI50 (NCI-H226): > 100 µM (inactive)
GI50 (SW-620): > 100 µM (inactive)
GI50 (SK-MEL-5): > 100 µM (inactive)
GI50 (MCF7): > 100 µM (inactive)
GI50 (UACC-62): > 100 µM (inactive)
GI50 (BT-549): > 100 µM (inactive)
GI50 (CCRF-CEM): > 100 µM (inactive)
GI50 (TK-10): > 100 µM (inactive)
GI50 (KM12): > 100 µM (inactive)
GI50 (OVCAR-3): > 100 µM (inactive)
GI50 (M14): > 100 µM (inactive)
GI50 (Malme-3M): > 100 µM (inactive)
GI50 (MDA-MB-231): > 100 µM (inactive)
GI50 (SK-MEL-28): > 100 µM (inactive)
GI50 (MDA-MB-435): > 100 µM (inactive)
GI50 (SK-OV-3): > 100 µM (inactive)
GI50 (U-251): > 100 µM (inactive)
GI50 (HOP-92): > 100 µM (inactive)
GI50 (HCT-116): > 100 µM (inactive)
GI50 (T47D): > 100 µM (inactive)
GI50 (UACC-257): > 100 µM (inactive)
GI50 (LOX IMVI): > 100 µM (inactive)
GI50 (DU-145): > 100 µM (inactive)
GI50 (RXF 393): > 100 µM (inactive)
GI50 (MOLT-4): > 100 µM (inactive)
GI50 (NCI/ADR-RES): > 100 µM (inactive)
GI50 (SK-MEL-2): > 100 µM (inactive)
